Reference: ChEMBL document CHEMBL5126573, “Scaffold modifications to the 4-(4,4-dimethylpiperidinyl) 2,6-dimethylpyridinyl class of HIV-1 allosteric integrase inhibitors” (Bioorg Med Chem, 2022)

Key:
[1] = Metabolic stability in human liver microsomes assessed as half life; format: ADME, Microsome
[2] = Toxicity in rat H4-II-E cells assessed as fold change in lipid droplet formation at 10 uM incubated for 72 hrs boron-dipyrromethene staining based by high content screening (HCS) fluorescence analysis relative to control; format: cell-based
[3] = Cytotoxicity against human MT2 cells infected with HIV1 NLRep-Rluc harbouring polymorphic 124T/125T integrase; format: toxicity, cell-based; settings: MT2 cells infected with HIV-1 NLRep-Rluc
[4] = AUC (0 to infinity) in Sprague-Dawley rat at 5 mg/kg, po; format: ADME, organism-based; design: time infinity, dose 5 mg/kg, route po; settings: in vivo
[5] = Metabolic stability in rat liver microsomes assessed as half life; format: ADME, Microsome
[6] = Toxicity in human Huh-7 cells assessed as fold change in lipid droplet formation at 10 uM incubated for 72 hrs boron-dipyrromethene staining based by high content screening (HCS) fluorescence analysis relative to control; format: cell-based; settings: huh-7, 72 h
[7] = Permeability of the compound at pH 5.5 by PAMPA assay; format: ADME; settings: read-out: permeability
[8] = Permeability of the compound at pH 7.4 by PAMPA assay; format: ADME; settings: read-out: permeability
[9] = system: Human immunodeficiency virus 1; experiment: Antiviral activity against recombinant HIV1 NLRep-Rluc harbouring polymorphic 124A/125A integrase infected in human MT2 cells assessed as inhibition of virus growth in presence of fetal bovine serum by measuring luciferase activity after 5 days by Luciferase Assay; format: functional, organism-based; settings: Human immunodeficiency virus 1, NLRep-Rluc, MT2, 120 h
[10] = Metabolic stability in Sprague-Dawley rat assessed as clearance at 1 mg/kg, iv; format: ADME, organism-based; settings: in vivo
[11] = system: Human immunodeficiency virus 1; experiment: Antiviral activity against recombinant HIV1 NLRep-Rluc harbouring polymorphic 124T/125T integrase infected in human MT2 cells assessed as inhibition of virus growth in presence of fetal bovine serum by measuring luciferase activity after 5 days by Luciferase Assay; format: functional, organism-based; settings: Human immunodeficiency virus 1, NLRep-Rluc, MT2, 120 h
[12] = system: Human immunodeficiency virus 1; experiment: Antiviral activity against recombinant HIV1 NLRep-Rluc harbouring polymorphic 124N/125A integrase infected in human MT2 cells assessed as inhibition of virus growth in presence of fetal bovine serum by measuring luciferase activity after 5 days by Luciferase Assay; format: functional, organism-based; settings: Human immunodeficiency virus 1, NLRep-Rluc, MT2, 120 h
[13] = Oral bioavailability in Sprague-Dawley rat at 5 mg/kg; format: ADME, organism-based; settings: in vivo

Structure (SMILES)	half-life [1] [h]	fold change (FC) [2]	CC50 [3] [nM]	AUC(0-inf) [4] [µM·h]	half-life [5] [h]	fold change (FC) [6]	Papp [7] [×10⁻⁶ cm/s]	Papp [8] [×10⁻⁶ cm/s]	EC50 [9] [nM]	clearance [10] [mL/min/kg]	EC50 [11] [nM]	EC50 [12] [nM]	bioavailability [13] [%]
Cc1nc(C)c([C@H](OC(C)(C)C)C(=O)O)c(N2CCC(C)(C)CC2)c1-c1ccc(OCCc2ccc(F)cc2)cc1	> 2	4	≥ 18200	14	> 2	3.7							
Cc1nc2c(-c3ccc4c(c3)CCN(Cc3c(C)cccc3Cl)C4)c(N3CCC(C)(C)CC3)c([C@H](OC(C)(C)C)C(=O)O)c(C)n2n1			≥ 3000	3.21			35.2	48.3	10.1	13	6	9	34
Cc1cn2c(C)c([C@H](OC(C)(C)C)C(=O)O)c(N3CCC(C)(C)CC3)c(-c3ccc(OCCc4ccc(F)cc4)cc3)c2n1	> 2		≥ 10300	0.269			38.7	43.8	1.6	40.7	0.8	1.8	8
Cc1nc2c(-c3ccc4c(c3)CCN(c3ncnc5c3oc3ccccc35)C4)c(N3CCC(C)(C)CC3)c([C@H](OC(C)(C)C)C(=O)O)c(C)n2n1		3.6	≥ 3000	36.3		3.9	101	75.2	5.2	2.8	3.9	4.5	83
Cc1c([C@H](OC(C)(C)C)C(=O)O)c(N2CCC(C)(C)CC2)c(-c2ccc3c(c2)CCN(c2ncnc4c2oc2ccccc24)C3)c2nccn12			≥ 3000	12.1				66.3	4.5	1	2.9	4.6	9
Cc1c([C@H](OC(C)(C)C)C(=O)O)c(N2CCC(C)(C)CC2)c(-c2ccc(OCCc3ccc(F)cc3)cc2)c2cncn12			≥ 18200						34.1		14.6	41	
Cc1c([C@H](OC(C)(C)C)C(=O)O)c(N2CCC(C)(C)CC2)c(-c2ccc(OCCc3ccc(F)cc3)cc2)c2cccn12			≥ 18200						38.2		27.7	32.6	
Cc1c([C@H](OC(C)(C)C)C(=O)O)c(N2CCC(C)(C)CC2)c(-c2ccc(OCCc3ccc(F)cc3)cc2)c2nc(C(C)C)cn12			≥ 10300						2.9		1.2	3.1	
Cc1c([C@H](OC(C)(C)C)C(=O)O)c(N2CCC(C)(C)CC2)c(-c2ccc(OCCc3ccc(F)cc3)cc2)c2nc(C3CC3)cn12			≥ 10300						10.7		4.2	11.1	
Cc1c([C@H](OC(C)(C)C)C(=O)O)c(N2CCC(C)(C)CC2)c(-c2ccc3c(c2)CCN(c2ncnc4c2oc2ccccc24)C3)c2cnnn12		1.3	≥ 3000	21.7		2.7		79	4	1.9	3.8	6.4	33
Cc1c([C@H](OC(C)(C)C)C(=O)O)c(N2CCC(C)(C)CC2)c(-c2ccc(OCCc3ccc(F)cc3)cc2)c2nc(CC(C)C)cn12	> 2		≥ 10300		> 2				3.5	44.6	1.2	2.6	
Cc1c([C@H](OC(C)(C)C)C(=O)O)c(N2CCC(C)(C)CC2)c(-c2ccc3c(c2)CCN(c2ncnc4c2oc2ccccc24)C3)c2ncnn12			≥ 3000	30.7				47.4	5	1.5	2.9	5.1	37
Cc1c([C@H](OC(C)(C)C)C(=O)O)c(N2CCC(C)(C)CC2)c(-c2ccc(OCCc3ccc(F)cc3)cc2)c2ncnn12	> 2	1.6	≥ 18200	3.59	> 2	2.7	160	65.4	4.6	11.9	2.4	4	28
Cc1c([C@H](OC(C)(C)C)C(=O)O)c(N2CCC(C)(C)CC2)c(-c2ccc(OCCc3ccc(F)cc3)cc2)c2cnnn12			≥ 18200						11.5		5.8	14.8	
Cc1c([C@H](OC(C)(C)C)C(=O)O)c(N2CCC(C)(C)CC2)c(-c2ccc(OCCc3ccc(F)cc3)cc2)c2nc(C(F)(F)F)cn12			≥ 10300						10.4		5.2	12.4	
Cc1c([C@H](OC(C)(C)C)C(=O)O)c(N2CCC(C)(C)CC2)c(-c2ccc(OCCc3ccc(F)cc3)cc2)c2nccn12	> 2	1.9	≥ 10300	1.48	> 2	3.3	49.8	41	1.7	12.5	1.1	1.9	13
Cc1nc2c(-c3ccc(OCCc4ccc(F)cc4)cc3)c(N3CCC(C)(C)CC3)c([C@H](OC(C)(C)C)C(=O)O)c(C)n2n1	> 2		≥ 40000	2.71	> 2				2.2	20.1	1.3	2.7	39
Cc1c([C@H](OC(C)(C)C)C(=O)O)c(N2CCC(C)(C)CC2)c(-c2ccc(OCCc3ccc(F)cc3)cc2)c2nncn12			≥ 18200						15.8		11.9	13.7	
Cc1nc2c(C)c(N3CCC(C)(C)CC3)c([C@H](OC(C)(C)C)C(=O)O)c(C)n2n1			≥ 3000						1210		207	540	
Cc1c([C@H](OC(C)(C)C)C(=O)O)c(N2CCC(C)(C)CC2)c(-c2ccc(OCCc3ccc(F)cc3)cc2)c2ccnn12			≥ 18200						35.3		12.9	26.3	
CCc1cn2c(C)c([C@H](OC(C)(C)C)C(=O)O)c(N3CCC(C)(C)CC3)c(-c3ccc(OCCc4ccc(F)cc4)cc3)c2n1	> 2		≥ 10300		> 2			34.3	1.8	57.3	1	2.4	
